From ChEMBL document CHEMBL1140483, “High dopamine transporter selectivity can be displayed by remarkably simple non-nitrogen containing inhibitors” (Bioorg Med Chem Lett, 2007)

Legend:
Homo sapiens [1] = organism: Homo sapiens; assay: Selectivity for human DAT over human NET
[2] = molecular target: Sodium-dependent serotonin transporter (Homo sapiens, UniProt P31645); assay: Displacement of [125I]RTI55 from human SERT transfected in COS1 cells; type: cell-based, COS-1
[3] = molecular target: Sodium-dependent dopamine transporter (Homo sapiens, UniProt Q01959); assay: Displacement of [125I]RTI55 from human DAT transfected in COS1 cells; type: cell-based, COS-1
[4] = molecular target: Sodium-dependent noradrenaline transporter (Homo sapiens, UniProt P23975); assay: Displacement of [125I]RTI55 from human NET transfected in COS1 cells; type: cell-based, COS-1
Homo sapiens [5] = organism: Homo sapiens; assay: Selectivity for human DAT over human SERT

Sequence of Sodium-dependent noradrenaline transporter (P23975 whole entry): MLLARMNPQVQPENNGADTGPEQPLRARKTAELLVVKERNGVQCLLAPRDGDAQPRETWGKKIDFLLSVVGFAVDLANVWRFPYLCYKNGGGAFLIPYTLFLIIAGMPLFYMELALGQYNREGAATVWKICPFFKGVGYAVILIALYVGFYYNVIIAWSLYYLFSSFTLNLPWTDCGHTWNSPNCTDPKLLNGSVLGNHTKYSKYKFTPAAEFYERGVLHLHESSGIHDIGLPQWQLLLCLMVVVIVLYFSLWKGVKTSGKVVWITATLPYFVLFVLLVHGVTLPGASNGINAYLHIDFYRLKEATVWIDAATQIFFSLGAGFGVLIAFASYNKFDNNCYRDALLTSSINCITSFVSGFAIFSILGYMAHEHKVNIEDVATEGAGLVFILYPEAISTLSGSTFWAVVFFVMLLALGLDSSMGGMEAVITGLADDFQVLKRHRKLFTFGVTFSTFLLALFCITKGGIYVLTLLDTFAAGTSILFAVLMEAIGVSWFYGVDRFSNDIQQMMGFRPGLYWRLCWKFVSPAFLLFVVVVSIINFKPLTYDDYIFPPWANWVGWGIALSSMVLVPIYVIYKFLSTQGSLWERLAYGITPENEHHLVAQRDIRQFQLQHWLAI
Sequence of Sodium-dependent serotonin transporter (P31645 whole entry): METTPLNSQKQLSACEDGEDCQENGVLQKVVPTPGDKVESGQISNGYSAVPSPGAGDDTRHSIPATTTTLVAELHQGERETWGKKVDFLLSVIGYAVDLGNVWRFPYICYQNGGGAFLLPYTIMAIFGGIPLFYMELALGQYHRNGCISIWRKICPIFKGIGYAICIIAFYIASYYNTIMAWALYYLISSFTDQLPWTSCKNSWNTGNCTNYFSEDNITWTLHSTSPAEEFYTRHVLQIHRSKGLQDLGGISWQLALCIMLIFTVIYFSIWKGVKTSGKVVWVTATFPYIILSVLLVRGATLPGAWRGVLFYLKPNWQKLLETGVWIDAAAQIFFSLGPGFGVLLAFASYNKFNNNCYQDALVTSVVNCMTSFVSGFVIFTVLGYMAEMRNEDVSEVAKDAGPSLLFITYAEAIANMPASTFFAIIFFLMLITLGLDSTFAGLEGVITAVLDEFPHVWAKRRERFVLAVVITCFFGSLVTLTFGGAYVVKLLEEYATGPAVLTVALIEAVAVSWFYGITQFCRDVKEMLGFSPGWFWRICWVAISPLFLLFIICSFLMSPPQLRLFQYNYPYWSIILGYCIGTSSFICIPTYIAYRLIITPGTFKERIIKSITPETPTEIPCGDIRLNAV
Sequence of Sodium-dependent dopamine transporter (Q01959 whole entry): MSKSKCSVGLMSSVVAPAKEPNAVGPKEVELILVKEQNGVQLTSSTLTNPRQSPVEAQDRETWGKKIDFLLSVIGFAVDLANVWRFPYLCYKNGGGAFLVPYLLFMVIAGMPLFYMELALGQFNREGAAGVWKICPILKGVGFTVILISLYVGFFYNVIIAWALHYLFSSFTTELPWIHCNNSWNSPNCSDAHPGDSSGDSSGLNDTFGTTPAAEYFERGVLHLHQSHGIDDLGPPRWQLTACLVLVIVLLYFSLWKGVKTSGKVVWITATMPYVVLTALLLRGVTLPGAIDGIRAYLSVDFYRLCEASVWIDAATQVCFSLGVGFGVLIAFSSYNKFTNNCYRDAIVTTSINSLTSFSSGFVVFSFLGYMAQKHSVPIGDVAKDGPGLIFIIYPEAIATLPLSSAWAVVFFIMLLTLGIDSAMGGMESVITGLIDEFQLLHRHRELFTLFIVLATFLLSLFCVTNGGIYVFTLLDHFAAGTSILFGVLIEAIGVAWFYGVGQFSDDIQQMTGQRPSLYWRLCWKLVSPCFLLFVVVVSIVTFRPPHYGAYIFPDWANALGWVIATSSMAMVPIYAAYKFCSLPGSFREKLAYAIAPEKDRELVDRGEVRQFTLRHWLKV

Structure (SMILES) | Ratio Ki (Homo sapiens [1]) | Ki [2] [µM] | Ki [3] [µM] | Ki [4] [µM] | Ratio Ki (Homo sapiens [5])
O=C(OCC(F)(F)F)C1=C(c2ccc(Cl)c(Cl)c2)CCC1 | 50 | > 1000 | 3.4 | 170 | 
O=C(NCCF)C1=C(c2ccc(Cl)c(Cl)c2)CCC1 | 110 | > 500 | 0.07 | 8 | > 7100
O=C(NCc1ccco1)C1=C(c2ccc(Cl)c(Cl)c2)CCC1 | 400 | 24 | 0.03 | 12 | 800
O=C(Oc1ccccc1)C1=C(c2ccc(Cl)c(Cl)c2)CCC1 | 500 | > 500 | 0.17 | 85 | > 2900
O=C(C1=C(c2ccc(Cl)c(Cl)c2)CCC1)N1CCOCC1 | 27 | > 500 | 11 | 300 | > 45
O=C(C1=C(c2ccc(Cl)c(Cl)c2)CCC1)N1CCCC1 | 7 | 520 | 58 | 410 | 9
COC(=O)C1=C(c2ccc(Cl)c(Cl)c2)CCC1 | 6 |  |  |  | 410
O=C(OCc1ccco1)C1=C(c2ccc(Cl)c(Cl)c2)CCC1 | 41 | 24 | 1.5 | 61 | 16
O=C(OCCO)C1=C(c2ccc(Cl)c(Cl)c2)CCC1 | 30 | 50 | 0.3 | 9 | 170
CC(C)OC(=O)C1=C(c2ccc(Cl)c(Cl)c2)CCC1 | 10 | 500 | 2.6 | 26 | 190
CCN(CC)C(=O)C1=C(c2ccc(Cl)c(Cl)c2)CCC1 | 2.2 | 300 | 94 | 210 | 3.2
O=C(OC1CCCCC1)C1=C(c2ccc(Cl)c(Cl)c2)CCC1 | 11 | > 1000 | 12 | 130 | > 83
Cc1ccccc1OC(=O)C1=C(c2ccc(Cl)c(Cl)c2)CCC1 | 150 | > 500 | 0.22 | 33 | > 2300
CONC(=O)C1=C(c2ccc(Cl)c(Cl)c2)CCC1 | 11 | > 500 | 0.83 | 9.2 | > 600
CON(C)C(=O)C1=C(c2ccc(Cl)c(Cl)c2)CCC1 | 39 | 540 | 6.4 | 250 | 84
Cc1cccc(OC(=O)C2=C(c3ccc(Cl)c(Cl)c3)CCC2)c1 | > 1700 | > 1000 | 0.06 | > 100 | > 17000
O=C(OCCF)C1=C(c2ccc(Cl)c(Cl)c2)CCC1 | 12 | 390 | 0.5 | 5.8 | 780
O=C(NCc1cccs1)C1=C(c2ccc(Cl)c(Cl)c2)CCC1 | 130 | 110 | 0.14 | 18 | 790
O=C(NC1CCC1)C1=C(c2ccc(Cl)c(Cl)c2)CCC1 | 5.6 | > 1000 | 9 | 50 | > 110
O=C(OCc1cccs1)C1=C(c2ccc(Cl)c(Cl)c2)CCC1 | 110 | 910 | 0.4 | 42 | 2300
